Target: PKMζ (protein kinase Mzeta) (Homo sapiens, UniProt Q05513)
Assay: split-Venus BiFC of KIBRA-PKMζ dimerization in HEK293T cells
Type: cell-based

PKMζ (protein kinase Mzeta), sequence (Q05513 184-592 limits assumed): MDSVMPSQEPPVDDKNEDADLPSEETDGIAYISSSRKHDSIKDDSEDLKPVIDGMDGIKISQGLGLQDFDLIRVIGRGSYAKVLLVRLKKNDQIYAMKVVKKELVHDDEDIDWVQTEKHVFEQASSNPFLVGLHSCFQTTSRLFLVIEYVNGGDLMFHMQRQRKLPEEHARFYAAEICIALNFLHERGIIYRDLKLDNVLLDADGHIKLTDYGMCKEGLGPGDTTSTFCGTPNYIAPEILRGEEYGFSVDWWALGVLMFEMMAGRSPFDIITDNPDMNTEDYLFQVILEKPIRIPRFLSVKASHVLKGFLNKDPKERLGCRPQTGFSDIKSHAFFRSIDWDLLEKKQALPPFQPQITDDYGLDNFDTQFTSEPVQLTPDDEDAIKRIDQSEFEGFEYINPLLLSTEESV
PKMζ (protein kinase Mzeta), sequence (Q8IX03 whole entry partner): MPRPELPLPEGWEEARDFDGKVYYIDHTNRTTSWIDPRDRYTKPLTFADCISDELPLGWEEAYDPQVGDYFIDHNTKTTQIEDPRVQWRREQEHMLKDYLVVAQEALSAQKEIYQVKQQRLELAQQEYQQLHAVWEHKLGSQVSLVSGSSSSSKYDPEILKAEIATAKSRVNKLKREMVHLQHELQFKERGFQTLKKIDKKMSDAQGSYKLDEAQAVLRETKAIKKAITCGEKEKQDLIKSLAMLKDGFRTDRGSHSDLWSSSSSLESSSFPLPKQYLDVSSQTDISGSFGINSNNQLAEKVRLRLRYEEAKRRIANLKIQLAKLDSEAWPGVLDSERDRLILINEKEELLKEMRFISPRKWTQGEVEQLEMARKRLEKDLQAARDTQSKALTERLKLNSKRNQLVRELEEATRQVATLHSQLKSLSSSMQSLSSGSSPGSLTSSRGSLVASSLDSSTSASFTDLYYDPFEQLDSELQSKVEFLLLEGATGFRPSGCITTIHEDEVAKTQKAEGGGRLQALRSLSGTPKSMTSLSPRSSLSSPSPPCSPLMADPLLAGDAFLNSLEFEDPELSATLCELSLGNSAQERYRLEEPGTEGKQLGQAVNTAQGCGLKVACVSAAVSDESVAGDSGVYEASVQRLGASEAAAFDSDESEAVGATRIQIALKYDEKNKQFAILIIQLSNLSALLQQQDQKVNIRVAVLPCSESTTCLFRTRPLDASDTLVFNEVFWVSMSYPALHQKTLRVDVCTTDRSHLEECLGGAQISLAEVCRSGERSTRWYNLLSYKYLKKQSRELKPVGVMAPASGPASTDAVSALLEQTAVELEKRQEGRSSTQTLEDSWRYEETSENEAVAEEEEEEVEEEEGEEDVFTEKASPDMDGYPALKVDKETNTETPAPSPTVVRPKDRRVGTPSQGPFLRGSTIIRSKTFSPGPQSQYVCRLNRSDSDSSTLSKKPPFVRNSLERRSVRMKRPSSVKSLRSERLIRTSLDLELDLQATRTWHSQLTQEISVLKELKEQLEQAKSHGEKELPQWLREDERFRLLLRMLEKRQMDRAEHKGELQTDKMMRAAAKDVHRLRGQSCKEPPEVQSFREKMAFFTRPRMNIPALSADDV

## O=S(=O)(O)c1cc(O)c2c(S(=O)(=O)O)cc(S(=O)(=O)O)cc2c1 [ζ-stat, 1-naphthol-3,6,8-trisulfonic acid]
  IC50: ~1000 nM

From PMC11204205 (Science Advances, 2024)
